“Also recorded” adds a separate entry of the source.
Key:
[1] = system: mucous membranes of the nasopharynx and lungs; assay: Protection of mucous membranes of the nasopharynx and lungs, comparison with related pyridones; format: in vivo; conditions: comparison with related pyridones
[2] = system: mucous linings of the respiratory system; assay: Clinical trials on humans with sinusitis, post-nasal drip, rhinitis, conjunctivitis, headache, earache, sore throat; format: in vivo, human; conditions: oral capsule, approximately 400 mg. per capsule
skin conditions = assay: Effect on skin conditions (dermatitis, itching, insect sting, poison ivy) in humans; format: in vivo, human
serum uric acid [3] = assay: Reduction in serum uric acid levels, dogs; format: in vivo, Beagle type dogs
Description: adult male and female Beagle type dogs from a closed colony weighing approximately 10 to 15 kilograms were utilized in the study. There were seven to nine dogs per group. AMR-69 was given orally in capsules to two groups and the third group received placebo capsules. […] The method for determining serum uric acid was performed using the Autotechnicon and the SMR-12 series of analyses. The specific method was based upon the procedure of Lofland et al. The mean serum uric acid values obtained with repeated doses of AMR-69 were as follows: […]

[4] = system: experimentally-induced fever in albino rabbits; assay: Anti-pyretic activity, experimentally-induced fever in rabbits; format: in vivo
Description: anti-pyretic activity testing is based upon the ability of the drug to suppress the experimentally-induced fever in albino rabbits (F. M. Berger, et al. J. Pharmacology and Experimental Therapeutics, Vol. 127, No. 1, 1959 based upon the original presentations of G. Brownlee Quart. J. Pharm; Vol. 10, Pg. 609, 1937 and Quart. J. Pharm., Vol. 12, Pg. 45, 1939). The drugs under test are administered intraperitoneally and the response is compared to that of saline controls. The average change in temperature over a period of three hours following the administration of aminopyrine (100 mg./kg. i.p.), AMR-69 (100 mg./kg. i.p.) and the saline (isotonic) controls were as follows:
The effective anti-pyretic activity of AMR-69 in rabbits has been noted previously.

serum uric acid [5] = assay: Reduction in serum uric acid levels, rats; format: in vivo, albino male and female rats
Description: normal adult albino male and female rats were given repeated graded doses of AMR-69 and the effect upon serum uric acid levels was determined. There were 10 males and 10 females in each group. The control group received the placebo and the drug was administered orally by admixture to the food. The serum uric acid determination was one of a series performed utilizing the Autotechnicon technique (Lofland et al., 1965 Technicon Symposium) using the Standard SMA-12 procedure (based upon procedure of Bittner et al., AM. J. Clin. Path. 40:423, 1963).
The lowering in serum uric acid levels shown by AMR-69 in tests on rats and on dogs has been noted.

blood = assay: Blood studies after administration for efficacy, and acute and chronic toxicity; format: in vivo; conditions: therapeutic or sublethal amounts; rats, mice, rabbits and dogs
[6] = system: rabbit eye (conjunctival sac); parameters: species or system albino rabbits of the New Zealand strain; conditions: in vivo
Description: six male albino rabbits of the New Zealand strain were incorporated in this study. A dosage of 0.1 ml. of AMR-69-62 (2% Aqueous Solution) was introduced into the conjunctival sac of the left eye of each rabbit; the right eye served as an untreated control. The six treated rabbit eyes were scored against the corresponding untreated control eyes according to the method of Draize (Draize, J.H., in Appraisal of the Safety of Chemicals in Foods, Drugs and Cosmetics, Assoc. of Food and Drug Officials of U.S., Austin, Tex., 1959) at 0.5 minutes, 30 minutes and 3.0 hours after administration of AMR-69.

[7] = system: fasted albino mice (Flanders); assay: Acute toxicity in mice; format: in vivo; conditions: oral and intraperitoneal
Description: (§1) in fasted albino mice (Flanders) the LD50 for AMR-69 and aminopyrine was determined by standard procedures with the following results: […]

Acute toxicity in mice = format: in vivo; conditions: mouse, in vivo, ip; fasted albino mice, intraperitoneal; read-out: Intraperitoneally LD50
Description: as §1

dog lung tissues = assay: Protection of mucous membranes against noxious agents, microscopic examination of dog lung tissues; format: in vivo
[8] = system: glucose level in the serum; assay: Reduction in serum glucose levels, nine week diet test in rats; format: in vivo, weanling rats of the Carworth Farms CFE Strain
rat lung tissues = assay: Protection of mucous membranes against noxious agents, gross examination of rat lung tissues; format: in vivo
[9] = system: edema (swelling), experimental inflammation in the hind limb of rats; assay: Anti-inflammatory activity, reduction of edema of experimentally inflamed hind limb; format: in vivo, albino rats; conditions: oral
Description: anti-inflammatory activity was assayed by the method described by Margolin (ibid.) utilizing albino rats. The anti-inflammatory bio-assay basis is the ability to reduce the edema (swelling) when an experimental inflammation is induced in the hind limb of the rats.

Solubility = format: physicochemical
[10] = Tolerability on administration over extended periods; format: in vivo
Source text: It may be administered orally, topically, parenterally, intradermally, by inhalation spray in formulations containing conventional non-toxic pharmaceutically acceptable carriers, adjuvants and vehicles. The term parenteral as used herein includes subcutaneous injections, intravenous, intromuscular, intracisternal or intrathecal injection or infusion techniques.

SMILES: Cc1ccc(=O)n(-c2ccccc2)c1 [AMR-69, 5-methyl-1-phenyl-2-(1H)-pyridone]
- protection of mucous membranes of the nasopharynx and lungs [1]: effective
- noxious effect of acute and chronic infections of the nasopharynx, cranial sinuses [2]: arrested and relieved
- relief from the symptom, skin conditions (skin conditions; oral capsule (procedure of preceding section)): Relief from the symptom was rapid in each instance
- relief from itching, contact dermatitis (poison ivy) (skin conditions; powder applied directly to the affected skin areas): substantially immediate relief from the characteristic itching
- time to cessation of weeping of the affected areas (skin conditions; powder applied topically, poison ivy): thirty
- reduction in serum uric acid values versus control (serum uric acid [3]; oral capsules (P 0.05)): significantly different from the control
- mean serum uric acid, 25 mg/kg (serum uric acid [3]; repeated oral capsules 25 mg/kg, placebo 0.78 ± 0.046 mg.%, T = 2.84 (P<0.02)): 0.59 ± 0.051 mg.%
- mean serum uric acid, 75 mg/kg (serum uric acid [3]; repeated oral capsules 75 mg/kg, placebo 0.78 ± 0.046 mg.%, T = 2.40 (P<0.05)): 0.60 ± 0.049 mg.%
- average change in temperature over a period of three hours ([4]; 100 mg./kg. i.p., fevered albino rabbits, saline controls +0.9 ±0.17°C): -0.4 ±0.12 °C
- reduction in fever as compared to the saline control ([4]; 100 mg./kg. i.p., aminopyrine t = 6.6, p < 0.01, AMR-69 t = 6.3, p < 0.01): highly significant
- anti-pyretic activity ([4]; rabbits, induced fever): effective anti-pyretic agent
- crystal deposition of uric acid or its salts (joints, liver, muscles, kidneys) (serum uric acid [5]; microscopic examination of focal tissues of sacrificed animals): no evidence of crystal deposition
- reduction in serum uric acid, significance (serum uric acid [5]; rats, 30 and 100 mg./kg.): statistically significant
- serum uric acid, 30 mg./kg. (serum uric acid [5]; rats, repeated oral 30 mg./kg. in food, placebo 1.53 ± 0.20 mg.%, T = 1.92 (P = 0.06)): 1.05 ± 0.15 mg.%
- serum uric acid, 100 mg./kg. (serum uric acid [5]; rats, repeated oral 100 mg./kg. in food, placebo 1.53 ± 0.20 mg.%, T = 3.25 (P< 0.01)): .78 ± 0.11 mg %
- blood dyscrasias (blood): no indication of blood dyscrasias
- Draize evaluation of eye irritation [6]: would not be considered as an irritant to the eye
- group mean Draize score at 0.5 minutes [6]: 2.0
- group mean Draize score at 30 minutes [6]: 0.0
- group mean Draize score at 3.0 hours [6]: 0.0
- lethal dosage level / toxicity as compared to aminopyrine [7]: markedly lower toxicity; also recorded: significant higher lethal dosage level as compared to aminopyrine
- LD50 (Acute toxicity in mice): 420 ± 9 mg/kg
- protection against noxious focal respiratory tract pathology (petechiae, edema, hemorrhage, focal infection) (dog lung tissues): affording protection against noxious focal respiratory tract pathology
- mean glucose, female, 600 mg./kg./day ([8]; female rats, 600 mg./kg./day in diet, control 173.0 mg.%): 144.8 mg.%
- mean glucose, female, 900 mg./kg./day ([8]; female rats, 900 mg./kg./day in diet, control 173.0 mg.%): 136 mg/dL
- mean glucose in the serum, male, 600 mg./kg./day ([8]; male rats, 600 mg./kg./day in diet, nine weeks, control 155.8 mg.%): 131.8 mg.%
- mean glucose in the serum, male, 900 mg./kg./day ([8]; male rats, 900 mg./kg./day in diet, nine weeks, control 155.8 mg.%): 132.6 mg.%
- protection against noxious focal respiratory tract pathology (petechiae, edema, hemorrhage, focal infection) (rat lung tissues): affording protection against noxious focal respiratory tract pathology
- ED50 ([9]; Rattus norvegicus, read-out: oral median effective dose (ED50), anti-inflammatory): 200 ± 46 mg/kg
- onset of the anti-inflammatory therapeutic effect ([9]; vs aminopyrine): more rapid onset of the therapeutic effect
- solubility compared with other analgesic uricosuric agents (Solubility): more readily soluble than other analgesic uricosuric agents
- irritation of body tissues at effective dosage levels ([10]; effective dosage levels): relatively non-irritating to the various body tissues
- side reactions on administration over extended periods ([10]; extended periods): no untoward side reactions

— patent publication US3974281A, “5-Methyl-1-phenyl-2-(1H)-pyridone compositions and methods of use” (priority 1974, dated 1976)
